# In patent publication US20230381134A1, “COCRYSTALS OF CANNABINOIDS” (PURISYS, LLC, priority 2020, published 2023):
# Tests used:
# CB1 receptor = CB1 receptor (Homo sapiens, UniProt P21554); settings: cited from earlier work
# [1] = biological target: cannabinoid G-protein coupled receptor CB2 (Homo sapiens, UniProt P34972); settings: cited from earlier work
# [2] = Solubility of the cannabinol starting material in various solvents
# [3] = solid, ambient conditions / storage
# Protocol: PXRD diffractograms were acquired on a PANalytical X'Pert Pro diffractometer using Ni-filtered Cu Ka (45 kV/40 mA) radiation and a step size of 0.03° 2θ and X'celerator™ RTMS (Real Time Multi-Strip) detector. Configuration on the incidental beam side: variable divergence slits (10 mm irradiated length), 0.04 rad Soller slits, fixed anti-scatter slit (0.50°), and 10 mm beam mask. Configuration on the diffracted beam side: variable anti-scatter slit (10 mm observed length) and 0.04 rad Soller slit. Samples were mounted flat on zero-background Si wafers.
# PXRD diffractograms were acquired on a Bruker D8 Advance system (SN:2631) using Cu Ka (40 kV/40 mA) radiation and a step size of 0.03° 2θ and LynxEye detector. Configuration on the incident beam side: Goebel mirror, mirror exit slit (0.2 mm), 2.5 deg Soller slits, beam knife. Configuration on the diffracted beam side: anti-scatter slit (8 mm) and 2.5 deg. Soller slit. Samples were mounted flat on zero-background Si wafers.
# Sequence of cannabinoid G-protein coupled receptor CB2 (P34972 whole entry): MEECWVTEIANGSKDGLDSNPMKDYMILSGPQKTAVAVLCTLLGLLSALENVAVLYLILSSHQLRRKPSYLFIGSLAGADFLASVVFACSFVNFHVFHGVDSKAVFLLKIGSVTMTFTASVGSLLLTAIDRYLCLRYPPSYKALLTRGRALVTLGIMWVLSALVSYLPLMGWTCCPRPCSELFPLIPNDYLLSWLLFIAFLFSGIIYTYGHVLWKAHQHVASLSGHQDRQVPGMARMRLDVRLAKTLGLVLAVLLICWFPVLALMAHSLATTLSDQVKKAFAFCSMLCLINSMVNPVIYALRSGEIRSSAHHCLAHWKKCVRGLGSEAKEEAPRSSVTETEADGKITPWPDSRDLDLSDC
# Sequence of CB1 receptor (P21554 whole entry): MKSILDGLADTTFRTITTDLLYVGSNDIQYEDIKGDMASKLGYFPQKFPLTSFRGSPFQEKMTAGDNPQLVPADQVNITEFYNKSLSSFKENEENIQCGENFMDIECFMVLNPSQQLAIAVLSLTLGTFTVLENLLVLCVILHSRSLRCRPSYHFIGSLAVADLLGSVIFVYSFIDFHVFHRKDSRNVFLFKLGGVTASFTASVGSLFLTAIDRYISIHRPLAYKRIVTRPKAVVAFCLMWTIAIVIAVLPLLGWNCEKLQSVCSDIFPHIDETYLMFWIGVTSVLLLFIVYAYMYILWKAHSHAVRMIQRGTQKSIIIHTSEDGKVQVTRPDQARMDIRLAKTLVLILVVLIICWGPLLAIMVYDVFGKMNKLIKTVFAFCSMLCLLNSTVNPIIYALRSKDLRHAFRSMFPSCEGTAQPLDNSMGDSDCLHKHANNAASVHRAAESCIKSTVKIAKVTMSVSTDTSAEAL
compound,measurement,setting,value
"CCCCCc1cc(O)c2c(c1)OC(C)(C)c1ccc(C)cc1-2 [cannabinol, 6,6,9-Trimethyl-3-pentyl-benzo[c]chromen-1-ol]",affinity for CB1,CB1 receptor,minimal affinity
same,binding to CB2,[1],preferentially binds
same,affinity for CB2 receptor relative to THC (fold lower),[1]; relative to THC,about 3 fold
same,solubility,[2]; water (1% methanol),< 20 mg/mL
same,solubility,"[2]; water (1% methanol), 40 °C",< 20 mg/mL
same,solubility,[2]; water (denatured with 1% MeOH),< 20 mg/mL
CCCCCc1cc(O)c2c(c1)OC(C)(C)c1ccc(C)cc1-2.O=C(O)C1CCCN1 [Mono-L-Proline Cocrystal Group C],physical stability by PXRD,[3],physically stable by PXRD for three days at ambient
